Bridge positions count the residues as written; N and C are the ends. Ends that are not written are not given here.
Target: MUC2 (Homo sapiens, UniProt Q02817)
Test: Phage display (CX7C library) against MUC2, Sanger sequencing
Assay type: binding
Conditions: for % Prevalence: MUC2 phage screening, CX7C library, third round of panning, 16 sequenced candidates
Protocol: For each mucin of interest, 5 μg of mucin protein was diluted in 150 μL of Tris-buffered saline (TBS) and added to 2 wells of a microtiter plate. The plate was left overnight in a humidified, sealed container with agitation at 50 rpm. After the overnight mucin coating, the solution was poured out, and 300 μL of blocking buffer was added to the wells for 1 h. After the 1 h waiting period, the blocking buffer was poured out, and the wells were washed three times with 300 μL of Tris-buffered saline with TBST (TBS + 0.1% (v/v) Tween-20) to remove nonspecific binding on the mucin layer coating. Next, 5 μL of the C7C library diluted with 95 μL of TBST was added to each blocked well and placed on shaker for 45 min, before pouring out the nonbinding phage and washing the plate ten times with TBST. A 0.2 M glycine-HCl elution buffer (pH 2.2, 100 μL) was added to each well and placed on a shaker for 20 min to release the mucin-layer binding peptides on the plate as unamplified eluate, with the pH neutralized by 30 μL of neutralization buffer (1 M Tris-HCl, pH 9).
E. coli liquid cultures were prepared by adding E. coli cells to 20 mL of LB media and placing them in shaking conditions at 37 °C and 250 rpm for 2 h and 45 min. The unamplified eluate (1 μL of which was saved for titering) was added to the E. coli cultures under the same conditions for 4 h and 45 min for amplification. After amplification, the cultures were centrifuged for 10 min at 12,000 g RCF at 4 °C, and the supernatant was collected and spun again under the same conditions for 5 min. The top 16 mL of supernatant was collected and mixed with 4 mL of PEG/NaCl (20% (w/v) PEG-8000/2.5 M NaCl in water) to promote precipitation of the mucin-binding peptide-containing phage and left overnight.
Titering was performed to measure the amount of phages present in the solution. From the obtained unamplified eluate, 1 μL of unamplified eluate was added to 999 μL of LB solution to obtain a 10³ dilution. […]

| % Prevalence [%] | repeated peptide hits (number of phage candidates) (phage display against MUC2, Sanger sequencing) | Sequence |
| --- | --- | --- |
| 6.25 |  | CTDKASSSC (disulfide 1-9 (inferred)) [Peptide M2.2, CX7C cyclic peptide hit for MUC2] |
| 25 | 4 of 16 | CAKHRIMLC (disulfide 1-9 (inferred)) [Peptide M2.1, CX7C cyclic peptide hit for MUC2; AF647 conjugated at N-terminus in ex vivo tests] |

Source: article PMC12020424, “Identification and Validation of Cyclic Peptides with Mucin-Selective, Location-Specific Binding in the Gastrointestinal Tract” (ACS Nano, 2025)
